Assay results published in PubChem BioAssay AID1963845 (Molecular Pharmacology Branch, DTP, NCI, 2024).

Test system: 429239-143-T-J1-PDC complex spheroid viability
Experiment: Anticancer human tumor 429239-143-T-J1-PDC patient-derived small cell lung carcinoma cell line growth inhibition [POLQ]
Conditions: for IC50: curve of first compound; for viability, T/C: stronger effect = lower value
In short: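 Growth inhibition in 3D: complex spheroids (tumor PDC, HUVEC, MSC) treated with POLQ inhibitor combinations; where Cmax unknown, highest tested concentration 10 microM, except SN-38 at 1 microM.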

[1] = second compound 0.0316 µM, first compound 0.0316 µM
[2] = second compound 0.0316 µM, first compound 0.1 µM
[3] = second compound 0.0316 µM, first compound 0.316 µM
[4] = second compound 0.0316 µM, first compound 1 µM
[5] = second compound 0.0316 µM, first compound 3.16 µM
[6] = second compound 0.0316 µM, first compound 10 µM
[7] = second compound 0.1 µM, first compound 0.0316 µM
[8] = second compound 0.1 µM, first compound 0.1 µM
[9] = second compound 0.1 µM, first compound 0.316 µM
[10] = second compound 0.1 µM, first compound 1 µM
[11] = second compound 0.1 µM, first compound 3.16 µM
[12] = second compound 0.1 µM, first compound 10 µM
[13] = second compound 0.316 µM, first compound 0.0316 µM
[14] = second compound 0.316 µM, first compound 0.1 µM
[15] = second compound 0.316 µM, first compound 0.316 µM
[16] = second compound 0.316 µM, first compound 1 µM
[17] = second compound 0.316 µM, first compound 3.16 µM
[18] = second compound 0.316 µM, first compound 10 µM
[19] = second compound 1 µM, first compound 0.0316 µM
[20] = second compound 1 µM, first compound 0.1 µM
[21] = second compound 1 µM, first compound 0.316 µM
[22] = second compound 1 µM, first compound 1 µM
[23] = second compound 1 µM, first compound 3.16 µM
[24] = second compound 1 µM, first compound 10 µM
[25] = second compound 3.16 µM, first compound 0.0316 µM
[26] = second compound 3.16 µM, first compound 0.1 µM
[27] = second compound 3.16 µM, first compound 0.316 µM
[28] = second compound 3.16 µM, first compound 1 µM
[29] = second compound 3.16 µM, first compound 3.16 µM
[30] = second compound 3.16 µM, first compound 10 µM
[31] = second compound 10 µM, first compound 0.0316 µM
[32] = second compound 10 µM, first compound 0.1 µM
[33] = second compound 10 µM, first compound 0.316 µM
[34] = second compound 10 µM, first compound 1 µM
[35] = second compound 10 µM, first compound 3.16 µM
[36] = second compound 10 µM, first compound 10 µM
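Also: luminescence signal used as surrogate measure of viable cells; spheroids exposed to compounds for seven days before readout.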
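For viability, T/C in this document: 100% = DMSO vehicle control viability as luminescence relative to vehicle.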

CCc1cc2c(N3CCc4c(cc(Cn5ccnc5)cc4-c4cn(C)nc4C(F)(F)F)C3=O)ccnc2c(OC)n1 + Nc1ccc(C#CCN(C(=O)Cc2ncc(C(F)(F)F)cc2C(F)(F)F)c2ccc(F)cc2)nn1
IC50 (second compound 0.0316 µM): 9.75 µM
IC50 (second compound 0.1 µM): > 10 µM
IC50 (second compound 0.316 µM): 7.86 µM
IC50 (second compound 1 µM): 9.55 µM
IC50 (second compound 3.16 µM): > 10 µM
IC50 (second compound 10 µM): > 10 µM
viability, T/C [1]: 100%
viability, T/C [2]: 94.9%
viability, T/C [3]: 85.2%
viability, T/C [4]: 80.7%
viability, T/C [5]: 86.4%
viability, T/C [6]: 48%
viability, T/C [7]: 93.7%
viability, T/C [8]: 96.8%
viability, T/C [9]: 92.5%
viability, T/C [10]: 74.1%
viability, T/C [11]: 68.5%
viability, T/C [12]: 49.2%
viability, T/C [13]: 112%
viability, T/C [14]: 113%
viability, T/C [15]: 97.8%
viability, T/C [16]: 83.8%
viability, T/C [17]: 69.9%
viability, T/C [18]: 44.7%
viability, T/C [19]: 108%
viability, T/C [20]: 94.4%
viability, T/C [21]: 94.4%
viability, T/C [22]: 84.6%
viability, T/C [23]: 74.3%
viability, T/C [24]: 47.6%
viability, T/C [25]: 108%
viability, T/C [26]: 96%
viability, T/C [27]: 93.1%
viability, T/C [28]: 93.6%
viability, T/C [29]: 70.9%
viability, T/C [30]: 54%
viability, T/C [31]: 103%
viability, T/C [32]: 93%
viability, T/C [33]: 88.5%
viability, T/C [34]: 79.1%
viability, T/C [35]: 71%
viability, T/C [36]: 48.2%

COc1cccc2c1C(=O)c1c(O)c3c(c(O)c1C2=O)CC(O)(C(=O)CO)CC3OC1CC(N)C(O)C(C)O1 (stereo unspecified) + COC1C(OC(N)=O)C(O)C(Oc2ccc3c(O)c(NC(=O)c4ccc(O)c(CC=C(C)C)c4)c(=O)oc3c2C)OC1(C)C
IC50 (second compound 0.0316 µM): 0.0411 µM
IC50 (second compound 0.1 µM): 0.0364 µM
IC50 (second compound 0.316 µM): 0.0482 µM
IC50 (second compound 1 µM): 0.0376 µM
IC50 (second compound 3.16 µM): 0.0346 µM
IC50 (second compound 10 µM): 0.034 µM
viability, T/C [1]: 60.4%
viability, T/C [2]: 13.3%
viability, T/C [3]: 14.5%
viability, T/C [4]: 0.23%
viability, T/C [5]: 0.15%
viability, T/C [6]: 0.13%
viability, T/C [7]: 55.3%
viability, T/C [8]: 15.8%
viability, T/C [9]: 12.3%
viability, T/C [10]: 0.13%
viability, T/C [11]: 0.08%
viability, T/C [12]: 0.1%
viability, T/C [13]: 68.8%
viability, T/C [14]: 14.4%
viability, T/C [15]: 14.2%
viability, T/C [16]: 0.13%
viability, T/C [17]: 0.12%
viability, T/C [18]: 0.12%
viability, T/C [19]: 56.3%
viability, T/C [20]: 16.2%
viability, T/C [21]: 12.7%
viability, T/C [22]: 0.13%
viability, T/C [23]: 0.16%
viability, T/C [24]: 0.48%
viability, T/C [25]: 53.5%
viability, T/C [26]: 15.6%
viability, T/C [27]: 11.9%
viability, T/C [28]: 0.14%
viability, T/C [29]: 0.18%
viability, T/C [30]: 0.3%
viability, T/C [31]: 52.8%
viability, T/C [32]: 14%
viability, T/C [33]: 14.8%
viability, T/C [34]: 0.24%
viability, T/C [35]: 0.29%
viability, T/C [36]: 0.22%

CC(C)n1c(=O)n(C)c2cnc3cc(F)c(-c4ccc(OCCCN5CCCCC5)nc4)cc3c21 + COC1C(OC(N)=O)C(O)C(Oc2ccc3c(O)c(NC(=O)c4ccc(O)c(CC=C(C)C)c4)c(=O)oc3c2C)OC1(C)C
IC50 (second compound 0.0316 µM): > 10 µM
IC50 (second compound 0.1 µM): > 10 µM
IC50 (second compound 0.316 µM): > 10 µM
IC50 (second compound 1 µM): > 10 µM
IC50 (second compound 3.16 µM): > 10 µM
IC50 (second compound 10 µM): > 10 µM
viability, T/C [1]: 107%
viability, T/C [2]: 86.6%
viability, T/C [3]: 99%
viability, T/C [4]: 109%
viability, T/C [5]: 104%
viability, T/C [6]: 85.4%
viability, T/C [7]: 102%
viability, T/C [8]: 93.7%
viability, T/C [9]: 82.7%
viability, T/C [10]: 96.8%
viability, T/C [11]: 82.9%
viability, T/C [12]: 84.7%
viability, T/C [13]: 109%
viability, T/C [14]: 91%
viability, T/C [15]: 82.3%
viability, T/C [16]: 103%
viability, T/C [17]: 90.6%
viability, T/C [18]: 72.5%
viability, T/C [19]: 93.2%
viability, T/C [20]: 104%
viability, T/C [21]: 91.5%
viability, T/C [22]: 96.9%
viability, T/C [23]: 81.5%
viability, T/C [24]: 70.2%
viability, T/C [25]: 101%
viability, T/C [26]: 84.8%
viability, T/C [27]: 90.9%
viability, T/C [28]: 100%
viability, T/C [29]: 87.6%
viability, T/C [30]: 83.6%
viability, T/C [31]: 86.9%
viability, T/C [32]: 85.8%
viability, T/C [33]: 88.7%
viability, T/C [34]: 102%
viability, T/C [35]: 74%
viability, T/C [36]: 88.4%
